Results: ChEMBL document CHEMBL3044980, “Free radical scavenging and hepatoprotective effects of salidroside analogs on CCl4-induced cytotoxicity in LO2 cells” (Med Chem Res, 2013)
Calls of active or inactive are those of the source. No cut-off for these calls is given here.

Key:
[1] = Antioxidant activity assessed as decrease in initial DPPH concentration after 30 min by MicroELISA reader analysis; assay type: functional
L02 [2] = test: Hepatoprotective activity in Homo sapiens (human) LO2 cells assessed as reversal of CCl4-induced increase in malondialdehyde level at 10 mM treated prior to CCl4 addition measured after 24 hr (CCl4 Rvb = 170 +/-4.3%); assay type: functional
L02 [3] = test: Hepatoprotective activity in Homo sapiens (human) LO2 cells assessed as reversal of CCl4-induced decrease in GSH-Px activity at 50 mM treated prior to CCl4 addition measured after 24 hr (CCl4 Rvb = 49 +/-3.8%); assay type: functional; design: scale not given: the % may be the effect or the level left
L02 [4] = test: Hepatoprotective activity in Homo sapiens (human) LO2 cells assessed as reversal of CCl4-induced decrease in GSH-Px activity at 1 mM treated prior to CCl4 addition measured after 24 hr (CCl4 Rvb = 49 +/-3.8%); assay type: functional; design: scale not given: the % may be the effect or the level left
L02 [5] = test: Hepatoprotective activity in Homo sapiens (human) LO2 cells assessed as reversal of CCl4-induced decrease in GSH-Px activity at 10 mM treated prior to CCl4 addition measured after 24 hr (CCl4 Rvb = 49 +/-3.8%); assay type: functional; design: scale not given: the % may be the effect or the level left
L02 [6] = test: Hepatoprotective activity in Homo sapiens (human) LO2 cells assessed as reversal of CCl4-induced increase in malondialdehyde level at […] treated prior to CCl4 addition measured after 24 hr (CCl4 Rvb = 170 +/-4.3%); assay type: functional
L02 [7] = test: Hepatoprotective activity in Homo sapiens (human) LO2 cells assessed as reversal of CCl4-induced decrease in superoxide dismutase activity at 50 mM treated prior to CCl4 addition measured after 24 hr by xanthine/xanthine oxidase assay (CCl4 Rvb = 47 +/-4.4%); assay type: functional; design: scale not given: the % may be the effect or the level left
L02 [8] = test: Hepatoprotective activity in Homo sapiens (human) LO2 cells assessed as protection against CCl4-induced cytotoxicity at 10 to […] treated prior to CCl4 addition measured after 24 hr by MTT assay; assay type: functional, cell-based
L02 [9] = test: Hepatoprotective activity in Homo sapiens (human) LO2 cells assessed as reversal of CCl4-induced decrease in superoxide dismutase activity at […] treated prior to CCl4 addition measured after 24 hr by xanthine/xanthine oxidase assay (CCl4 Rvb = 47 +/-4.4%); assay type: functional; design: scale not given: the % may be the effect or the level left
L02 [10] = test: Hepatoprotective activity in Homo sapiens (human) LO2 cells assessed as protection against CCl4-induced cytotoxicity at […] treated prior to CCl4 addition measured after 24 hr by MTT assay; assay type: functional, cell-based
L02 [11] = test: Hepatoprotective activity in Homo sapiens (human) LO2 cells assessed as protection against CCl4-induced cytotoxicity at 50 to […] treated prior to CCl4 addition measured after 24 hr by MTT assay; assay type: functional, cell-based
L02 [12] = test: Hepatoprotective activity in Homo sapiens (human) LO2 cells assessed as reversal of CCl4-induced decrease in superoxide dismutase activity at 1 mM treated prior to CCl4 addition measured after 24 hr by xanthine/xanthine oxidase assay (CCl4 Rvb = 47 +/-4.4%); assay type: functional; design: scale not given: the % may be the effect or the level left
L02 [13] = test: Hepatoprotective activity in Homo sapiens (human) LO2 cells assessed as reversal of CCl4-induced increase in malondialdehyde level at 50 mM treated prior to CCl4 addition measured after 24 hr (CCl4 Rvb = 170 +/-4.3%); assay type: functional
L02 [14] = test: Hepatoprotective activity in Homo sapiens (human) LO2 cells assessed as reversal of CCl4-induced decrease in GSH-Px activity at […] treated prior to CCl4 addition measured after 24 hr (CCl4 Rvb = 49 +/-3.8%); assay type: functional; design: scale not given: the % may be the effect or the level left
L02 [15] = test: Hepatoprotective activity in Homo sapiens (human) LO2 cells assessed as reversal of CCl4-induced increase in malondialdehyde level at 1 mM treated prior to CCl4 addition measured after 24 hr (CCl4 Rvb = 170 +/-4.3%); assay type: functional
L02 [16] = test: Hepatoprotective activity in Homo sapiens (human) LO2 cells assessed as reversal of CCl4-induced decrease in superoxide dismutase activity at 10 mM treated prior to CCl4 addition measured after 24 hr by xanthine/xanthine oxidase assay (CCl4 Rvb = 47 +/-4.4%); assay type: functional; design: scale not given: the % may be the effect or the level left

## OC[C@H]1O[C@@H](OCCc2ccc(O)c(Br)c2)[C@H](O)[C@@H](O)[C@@H]1O
[1]
  IC50: > 100 µM

## COc1cc(CCO[C@@H]2O[C@H](CO)[C@H](O)[C@H](O)[C@H]2O)cc(OC)c1O
[1]
  IC50: 70.1 µM

## O=C1O[C@H]([C@@H](O)CO)C(O)=C1O [ASCORBIC ACID]
[1]
  IC50: 54.6 µM

## OC[C@H]1O[C@@H](OCCc2ccc(O)cc2)[C@H](O)[C@@H](O)[C@@H]1O [SALIDROSIDE]
L02 [2]
  Activity: 165%
L02 [3]
  Activity: 56%
L02 [4]
  Activity: 51%
L02 [5]
  Activity: 53%
L02 [6]
  Activity: 157%
L02 [7]
  Activity: 56%
L02 [8]
  Activity: Active
L02 [9]
  Activity: 61%
L02 [10]
  Activity: Active
L02 [11]
  Activity: Active
L02 [12]
  Activity: 49%
L02 [13]
  Activity: 162%
L02 [14]
  Activity: 61%
L02 [15]
  Activity: 168%
L02 [16]
  Activity: 52%

## OC[C@H]1O[C@@H](OCCc2cc(Br)c(O)c(Br)c2)[C@H](O)[C@@H](O)[C@H]1O
[1]
  IC50: > 100 µM

## OC[C@H]1O[C@@H](OCCc2cc(O)c(O)c(O)c2)[C@H](O)[C@@H](O)[C@@H]1O
[1]
  IC50: 38.1 µM
L02 [2]
  Activity: 151%
L02 [3]
  Activity: 71%
L02 [4]
  Activity: 54%
L02 [5]
  Activity: 57%
L02 [6]
  Activity: 117%
L02 [7]
  Activity: 70%
L02 [8]
  Activity: Active
L02 [9]
  Activity: 83%
L02 [10]
  Activity: Active
L02 [11]
  Activity: Active
L02 [12]
  Activity: 50%
L02 [13]
  Activity: 128%
L02 [14]
  Activity: 80%
L02 [15]
  Activity: 167%
L02 [16]
  Activity: 55%

## OC[C@H]1O[C@@H](OCCc2ccc(O)c(Br)c2)[C@H](O)[C@@H](O)[C@H]1O
[1]
  IC50: > 100 µM

## COc1cc(CCO[C@@H]2O[C@H](CO)[C@H](O)[C@H](O)[C@H]2O)ccc1O
[1]
  IC50: 40.8 µM

## COc1cc(CCO[C@@H]2O[C@H](CO)[C@@H](O)[C@H](O)[C@H]2O)cc(OC)c1O
[1]
  IC50: 61.6 µM

## CCOc1cc(CCO[C@@H]2O[C@H](CO)[C@H](O)[C@H](O)[C@H]2O)ccc1O
[1]
  IC50: 87.5 µM

## CCOc1cc(CCO[C@@H]2O[C@H](CO)[C@@H](O)[C@H](O)[C@H]2O)ccc1O
[1]
  IC50: 66.8 µM

## OC[C@H]1O[C@@H](OCCc2cc(O)c(O)c(O)c2)[C@H](O)[C@@H](O)[C@H]1O
[1]
  IC50: 35.9 µM
L02 [2]
  Activity: 141%
L02 [3]
  Activity: 78%
L02 [4]
  Activity: 55%
L02 [5]
  Activity: 64%
L02 [6]
  Activity: 110%
L02 [7]
  Activity: 76%
L02 [8]
  Activity: Active
L02 [9]
  Activity: 89%
L02 [10]
  Activity: Active
L02 [11]
  Activity: Active
L02 [12]
  Activity: 54%
L02 [13]
  Activity: 119%
L02 [14]
  Activity: 86%
L02 [15]
  Activity: 164%
L02 [16]
  Activity: 65%

## OC[C@H]1O[C@@H](OCCc2cc(Br)c(O)c(Br)c2)[C@H](O)[C@@H](O)[C@@H]1O
[1]
  IC50: > 100 µM

## COc1cc(CCO[C@@H]2O[C@H](CO)[C@@H](O)[C@H](O)[C@H]2O)ccc1O
[1]
  IC50: 59.8 µM
